This passage reports IC50 results from patent publication US8362236B2, “Macrocyclic compound” (Chugai Seiyaku Kabushiki Kaisha, priority 2007, dated 2013).

The target in one test is T1, Human HSP90 alpha (Homo sapiens, UniProt P07900).
T1 construct: His tag (inferred from purification on a HisPrep FF column); made in house; host or cells: E. coli BL21 codon plus (Stratagene)
As to the kind of experiment: Assay for the activity of inhibiting HSP90 enzyme (ATPase, malachite green). The test is classed as biochemical. Particulars: purified human HSP90 alpha, 1 mM ATP added, 37° C. for two hours, OD655. As for the experimental part: Introduction of pETHuHSP90a into E. coli (BL21 codon plus; Stratagene) was followed by O/N incubation in the presence of 0.1 mM IPTG, and the collected E. coli cells were disrupted by ultrasonication in a Lysis buffer (50 mM Tris-HCl (pH8.0), 10 mM MgCl2, 0.1% Triton X-100, Protease inhibitor cocktail tablets (Roche Diagnostics)). The cell lysate solution was centrifuged (10,000 rpm×30 minutes), and the supernatant obtained after centrifugation was used as a crude extract. The crude extract was fractionated using HisPrep FF column and HiTrap Q column (Amersham) to prepare a purified enzyme solution.
An enzyme solution for assays was prepared by dilution of the purified enzyme solution using an assay buffer (50 mM Tris HCl pH7.6, 20 mM KCl, 5 mM MgCl2).
10 μL each of various concentrations of the test substances (10% DMSO solution) was added to each well, and for the positive control wells, 10 μL of 10% DMSO was added. 10 μL of 10% DMSO was also added to the negative control well.
10 μL of 1 mM ATP was added to all of the wells, and the reaction was carried out at 37° C. for two hours.

A further test relates to HCT116 cells. The test can be described thus: Measurement of cell growth inhibition (Cell Counting Kit-8, four days).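 Further: cells exposed to a range of test concentrations at 37 °C in 5% CO2 for four days, then growth read as absorbance with Cell Counting Kit-8.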 Particulars: Homo sapiens, HCT-116, 96 h, read-out: Cell growth-inhibiting activity (IC50, μM) Colon cancer HCT116, HCT116 colon cancer cell line, four days culture. A general note: Formazan colour is commonly taken as a measure of viable cells.
Setting [1] is: read-out: Enzyme-inhibiting activity (IC50, μM) Human HSP90α.

Each structure is given as a SMILES string. Where “and” joins values, the source holds several entries; their conditions need not be identical. Identical values can stand only once. Like-named read-outs stand apart in the source and are kept apart here.

Method for HCT116 cells: Cells were maintained under conditions recommended by the provider of each cell line. Cells suspended in a medium were added to solutions containing various concentrations of the test substance, and the cells were cultured at 37° C. in a 5% CO2 incubator. Four days later, Cell Counting Kit-8 was added, and absorbance measurements were taken following the protocol included in the kit.

Regarding `Cc1cc(C)c2cc1C(=O)NCC[C@@H](C(=O)N1CCOCC1)NC(=O)CCSc1cc-2nc(N)n1` [Compound 70, (S)-4-amino-18,20-dimethyl-12-(morpholine-4-carbonyl)-7-thia-3,5,11,15-tetraazatricyclo[15.3.1.1^2,6]docosa-1(20),2,4,6(22),17(21),18-hexaene-10,16-dione], the IC50 – broadly, the concentration at which inhibition is half-maximal – at Human HSP90 alpha (setting [1]) is 2.7 µM; in the test on HCT116 cells it was above 10 µM.

On to `Cc1cc(C)c2cc1C(=O)NCC[C@@H](CN1CCOCC1)NC(=O)CCSc1cc-2nc(N)n1` [Compound 71, (S)-4-amino-18,20-dimethyl-12-morpholin-4-ylmethyl-7-thia-3,5,11,15-tetraazatricyclo[15.3.1.1^2,6]docosa-1(20),2(22),3,5,17(21),18-hexaene-10,16-dione], for which the IC50 at Human HSP90 alpha (setting [1]) was 2.9 µM; in the test on HCT116 cells, 9.1 µM.

Turning to `Cc1cc(C)c2cc1C(=O)NCC1(CNC(=O)CCSc3cc-2nc(N)n3)COC1` [Compound 72], the IC50 on Human HSP90 alpha (setting [1]) turned out to be 2.2 µM; in the test with HCT116 cells it was 1 µM.

As to `Cc1cc(C)c2cc1C(=O)NCCC(N)C(=O)NCCSc1cc-2nc(N)n1` (stereo not shown) [Compound 73, 4,12-diamino-18,20-dimethyl-7-thia-3,5,10,15-tetraazatricyclo[15.3.1.1^2,6]docosa-1(20),2(22),3,5,17(21),18-hexaene-11,16-dione], the IC50 came to 2.3 µM at Human HSP90 alpha (setting [1]) and 0.5 µM in the test on HCT116 cells.

For the compound `CC(=O)NC1CCNC(=O)c2cc(c(C)cc2C)-c2cc(nc(N)n2)SCCNC1=O` (stereo not shown) [Compound 74, N-(4-amino-18,20-dimethyl-10,16-dioxo-7-thia-3,5,10,15-tetraazatricyclo[15.3.1.1^2,6]docosa-1(20),2(22),3,5,17(21),18-hexaen-12-yl)acetamide], the figures for the IC50 at Human HSP90 alpha (setting [1]) and in the test with HCT116 cells were 2.3 µM and 5.7 µM, respectively.

In the case of `Cc1cc(C)c2cc1C(=O)NCCC(NC(=O)C(F)(F)F)C(=O)NCCSc1cc-2nc(N)n1` (stereo not shown) [Compound 75, N-(4-amino-18,20-dimethyl-11,16-dioxo-7-thia-3,5,10,15-tetraazatricyclo[15.3.1.1^2,6]docosa-1(20),2(22),3,5,17(21),18-hexaen-12-yl)-2,2,2-trifluoroacetamide], the concentration for half-maximal inhibition (IC50) worked out at 1.9 µM at Human HSP90 alpha (setting [1]) and 0.5 µM in the test with HCT116 cells.

As for `Cc1cc(C)c2cc1C(=O)NCCC(NC(=O)[C@H](N)C(C)C)C(=O)NCCSc1cc-2nc(N)n1` (stereo partly shown) [Compound 76], the IC50 at Human HSP90 alpha (setting [1]) was 4.3 µM and 6.2 µM; with HCT116 cells, 5 µM.

As for `Cc1cc(C)c2cc1C(=O)NCCC(NC(=O)[C@H](N)Cc1ccc(O)cc1)C(=O)NCCSc1cc-2nc(N)n1` (stereo partly shown) [Compound 77], the IC50 against Human HSP90 alpha (Enzyme-inhibiting activity (IC50, μM) Human HSP90α) is 5 µM and 3.4 µM; in the test with HCT116 cells, 6.5 µM.

For `Cc1cc(C)c2cc1C(=O)NCCC(N(C)C)C(=O)NCCSc1cc-2nc(N)n1` (stereo not shown) [Compound 78, 4-amino-12-dimethylamino-18,20-dimethyl-7-thia-3,5,10,15-tetraazatricyclo[15.3.1.1^2,6]docosa-1(20),2(22),3,5,17(21),18-hexaene-11,16-dione], the IC50 at Human HSP90 alpha (setting [1]) was found to be 2.8 µM; in the test on HCT116 cells, 0.5 µM.

As for `Cc1cc(C)c2cc1C(=O)NCCCC(=O)N(CCO)CCSc1cc-2nc(N)n1` [Compound 79, 4-amino-10-(2-hydroxyethyl)-18,20-dimethyl-7-thia-3,5,10,15-tetraazatricyclo[15.3.1.1^2,6]docosa-1(20),2(22),3,5,17(21),18-hexaene-11,16-dione], the half-maximal inhibitory concentration (IC50) on Human HSP90 alpha (setting [1]) stood at 3 µM; in the test on HCT116 cells, 0.4 µM.

With `COCCN1CCSc2cc(nc(N)n2)-c2cc(c(C)cc2C)C(=O)NCCCC1=O` [Compound 80, 4-amino-10-(2-methoxyethyl)-18,20-dimethyl-7-thia-3,5,10,15-tetraazatricyclo[15.3.1.1^2,6]docosa-1(20),2(22),3,5,17(21),18-hexaene-11,16-dione], the figures for the 50% inhibitory concentration (IC50) at Human HSP90 alpha (setting [1]) and with HCT116 cells were 2.5 µM and 0.2 µM, respectively.

Turning to `Cc1cc(C)c2cc1C(=O)NCCCC(=O)N(CCN1CCOCC1)CCSc1cc-2nc(N)n1` [Compound 81, 4-amino-10-(2-morpholin-4-ylethyl)-18,20-dimethyl-7-thia-3,5,10,15-tetraazatricyclo[15.3.1.1^2,6]docosa-1(20),2(22),3,5,17(21),18-hexaene-11,16-dione], the half-maximal inhibitory concentration (IC50) on Human HSP90 alpha (setting [1]) was determined as 3 µM; with HCT116 cells it was 1.1 µM.

`Cc1cc(C)c2cc1C(=O)NCCCC(=O)N(C)CCSc1cc-2nc(N)n1` [Compound 82, 4-amino-10,18,20-trimethyl-7-thia-3,5,10,15-tetraazatricyclo[15.3.1.1^2,6]docosa-1(20),2(22),3,5,17(21),18-hexaene-11,16-dione]: the half-maximal inhibitory concentration (IC50) is 2.5 µM on Human HSP90 alpha (setting [1]) and 0.2 µM with HCT116 cells.

For `Cc1cc(C)c2cc1C1=N[C@@H](CCNC(=O)CCSc3cc-2nc(N)n3)CO1` [Compound 83, (S)-4-amino-19,21-dimethyl-10-oxo-7-thia-16-oxa-3,5,11,24-tetraazatetracyclo[16.3.1.1^2,6.1^7,10]tetracosa-1(22),2(23),3,5,17(24),19,21-heptaen-10-one], the IC50 at Human HSP90 alpha (setting [1]) came to 2.8 µM; in the test on HCT116 cells it was 0.4 µM.
